Assay results from patent US5210193A, “Piperazine derivatives” (American Cyanamid Company, priority 1990, dated 1993).
Like-named read-outs stand apart in the source and are kept apart here.

What was measured:
Assay in all cases: in vitro antibacterial MIC, agar plate dilution
Assay type in all cases: cell-based
[1] = system: Escherichia coli CMC 84-16; conditions: 35° C.
Procedure, shortened: (§1)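 Agar plate dilution on Mueller-Hinton agar, inoculum approximately 10^4 CFU per organism applied with a Steers replicator. MIC (mcg/ml) is the lowest compound concentration inhibiting visible growth after 18 hours at 35° C.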

[2] = system: Escherichia coli PRNT 311; conditions: 35° C.
Procedure, shortened: as §1

[3] = system: Pseudomonas aeruginosa VGH 84-4; conditions: 35° C.
Procedure, shortened: as §1

[4] = system: Escherichia coli ATCC 25922; conditions: 35° C.
Procedure, shortened: as §1

[5] = system: Morganella morganii VGH 84-11; conditions: 35° C.
Procedure, shortened: as §1

[6] = system: Acinetobacter calcoaceticus MOR 84-43; conditions: 35° C.
Procedure, shortened: as §1

[7] = system: Morganella morganii CMC 84-37; conditions: 35° C.
Procedure, shortened: as §1

[8] = system: Staphylococcus aureus VGH 84-46; conditions: 35° C.
Procedure, shortened: as §1

[9] = system: Staphylococcus aureus CMC 83-127; conditions: 35° C.
Procedure, shortened: as §1

[10] = system: Staphylococcus epidermidis VGH 84-40; conditions: 35° C.
Procedure, shortened: as §1

[11] = system: Streptococcus faecalis ATTC 29212; conditions: 35° C.
Procedure, shortened: as §1

[12] = system: Enterobacter aerogenes VGH 84-36; conditions: 35° C.
Procedure, shortened: as §1

[13] = system: Staphylococcus aureus Smith; conditions: 35° C.
Procedure, shortened: as §1

[14] = system: Staphylococcus aureus CMC 83-128; conditions: 35° C.
Procedure, shortened: as §1

[15] = system: Serratia marcescens F 0-35; conditions: 35° C.
Procedure, shortened: as §1

[16] = system: Enterobacter cloacae VGH 84-37; conditions: 35° C.
Procedure, shortened: as §1

[17] = system: Staphylococcus epidermidis CMC 83-135; conditions: 35° C.
Procedure, shortened: as §1

[18] = system: Staphylococcus aureus ATTC 29213; conditions: 35° C.
Procedure, shortened: as §1

[19] = system: Klebsiella pneumoniae MOR 84-4; conditions: 35° C.
Procedure, shortened: as §1

[20] = system: Enterobacter cloacae K 84-10; conditions: 35° C.
Procedure, shortened: as §1

[21] = system: Escherichia coli CMC 84-11; conditions: 35° C.
Procedure, shortened: as §1

[22] = system: Staphylococcus aureus VGH 84-45; conditions: 35° C.
Procedure, shortened: as §1

[23] = system: Pseudomonas aeruginosa LL-1244; conditions: 35° C.
Procedure, shortened: as §1

[24] = system: Serratia marcescens K 84-18; conditions: 35° C.
Procedure, shortened: as §1

[25] = system: Escherichia coli NAR 311; conditions: 35° C.
Procedure, shortened: as §1

[26] = system: Proteus rettgeri CMC 84-41; conditions: 35° C.
Procedure, shortened: as §1

[27] = system: Streptococcus faecalis VGH 84-65; conditions: 35° C.
Procedure, shortened: as §1

[28] = system: Staphylococcus Spp saprophiticus VGH 84-50; conditions: 18 hours, 35° C.
Procedure, shortened: as §1

[29] = system: Staphylococcus epidermidis IO 83-58; conditions: 35° C.
Procedure, shortened: as §1

[30] = system: Klebsiella pneumoniae AD; conditions: 35° C.
Procedure, shortened: as §1

[31] = Escherichia coli, CMC8416, 18 h, read-out: MIC
[32] = PRNT311, 18 hours, read-out: MIC
[33] = Pseudomonas aeruginosa, VGH844, 18 h, read-out: MIC
[34] = Escherichia coli, ATCC25922, 18 h, read-out: MIC
[35] = VGH8411, 18 hours, read-out: MIC
[36] = MOR8443, 18 hours, read-out: MIC
[37] = Morganella morganii, CMC8437, 18 h, read-out: MIC
[38] = Staphylococcus aureus, CMC83127, 18 h, read-out: MIC
[39] = VGH8440, 18 hours, read-out: MIC
[40] = Enterococcus faecalis, ATTC29212, 18 hours, read-out: MIC
[41] = Klebsiella aerogenes, VGH8436, 18 hours, read-out: MIC
[42] = CMC83128, 18 hours, read-out: MIC
[43] = Serratia marcescens, F035, 18 h, read-out: MIC
[44] = Enterobacter cloacae, VGH8437, 18 h, read-out: MIC
[45] = CMC83135, 18 hours, read-out: MIC
[46] = Staphylococcus aureus, ATTC29213, 18 h, read-out: MIC
[47] = Klebsiella pneumoniae, MOR844, 18 h, read-out: MIC
[48] = Enterobacter cloacae, K8410, 18 h, read-out: MIC
[49] = Escherichia coli, CMC8411, 18 h, read-out: MIC
[50] = Staphylococcus aureus, VGH8445, 18 h, read-out: MIC
[51] = Pseudomonas aeruginosa, LL1244, 18 h, read-out: MIC
[52] = Serratia marcescens, K8418, 18 h, read-out: MIC
[53] = NAR311, 18 hours, read-out: MIC
[54] = Providencia rettgeri, CMC8441, 18 h, read-out: MIC
[55] = Enterococcus faecalis, VGH8465, 18 h, read-out: MIC
[56] = IO8358, 18 hours, read-out: MIC
[57] = Klebsiella pneumoniae, 18 h, read-out: MIC

Measured: MIC

CCn1cc(C(=O)O)c(=O)c2cc(F)c(N3CCNC(CF)C3)c(F)c21 (racemic) [Example 63, (racemic)-N-Ethyl-6,8-difluoro-7-[3-(fluoromethyl)-1-piperazinyl]-1,4-dihydro-4-oxo-3-quinolinecarboxylic acid]
0.25 µg/mL: [8]; Staphylococcus aureus, VGH8446, 18 h, read-out: MIC | [10]; [39] | [12]; [41] | [13]; Staphylococcus aureus, 18 h, read-out: MIC | [18]; [46] | [22]; [50] | [29]; [56]
8 µg/mL: [23]; [51]
0.12 µg/mL: [2]; [32] | [7]; [37] | [9]; [38] | [19]; [47] | [20]; [48] | [30]; [57]
2 µg/mL: [3]; [33]
0.06 µg/mL: [1]; [31] | [4]; [34] | [21]; [49] | [24]; [52] | [28]; read-out: MIC
1 µg/mL: [25]; [53]
0.03 µg/mL: [14]; [42]
4 µg/mL: [11]; [40] | [27]; [55]
0.5 µg/mL: [5]; [35] | [6]; [36] | [15]; [43] | [16]; [44] | [17]; [45] | [26]; [54]

CCn1cc(C(=O)O)c(=O)c2cc(F)c(N3CCNC(CF)C3)c(F)c21 (single isomer, unassigned; (+)) [Example 65, (+)-N-Ethyl-6,8-difluoro-7-[3-(fluoromethyl)-1-piperazinyl]-1,4-dihydro-4-oxo-3-quinolinecarboxylic acid]
1 µg/mL: [3]; 18 hours | [25]; 18 hours | [28]
4 µg/mL: [11]; 18 hours | [27]; 18 hours
0.25 µg/mL: [8]; 18 hours | [10]; 18 hours | [13]; 18 hours | [14]; 18 hours | [15]; 18 hours | [17]; 18 hours | [18]; 18 hours | [24]; 18 hours | [26]; 18 hours | [29]; 18 hours
0.06 µg/mL: [1]; 18 hours | [2]; 18 hours | [4]; 18 hours | [20]; 18 hours | [21]; 18 hours
0.5 µg/mL: [6]; 18 hours
0.12 µg/mL: [5]; 18 hours | [7]; 18 hours | [9]; 18 hours | [12]; 18 hours | [16]; 18 hours | [19]; 18 hours | [22]; 18 hours | [30]; 18 hours
8 µg/mL: [23]; 18 hours

CCn1cc(C(=O)O)c(=O)c2cc(F)c(N3CCNC(CF)C3)c(F)c21 (single isomer, unassigned; (-)) [Example 64, (-)-N-Ethy6,8-difluoro-7-[3-(fluoromethyl)-1-piperazinyl]-1,4-dihydro-4-oxo-3-quinolinecarboxylic acid]
0.25 µg/mL: [10]; [39] | [14]; [42] | [17]; [45] | [18]; [46] | [24]; [52] | [26]; [54] | [29]; [56]
8 µg/mL: [23]; [51]
2 µg/mL: [3]; [33]
4 µg/mL: [11]; [40] | [27]; [55]
0.12 µg/mL: [5]; [35] | [8]; 18 hours | [12]; [41] | [13]; 18 hours | [22]; [50]
0.03 µg/mL: [1]; [31] | [4]; [34] | [21]; [49]
0.5 µg/mL: [6]; [36] | [15]; [43]
0.06 µg/mL: [2]; [32] | [7]; [37] | [9]; [38] | [16]; [44] | [19]; [47] | [20]; [48] | [30]; [57]
1 µg/mL: [25]; [53] | [28]; read-out: MIC
